From patent publication US10233151B2, “Use of a novel 3-aryl-4-catechol-pyrrole-N-propanol compound and the derivatives thereof to treat cancer and diseases related to excessive angiogenesis” (Centre National de la Recherche Scientifique (CNRS), priority 2014, dated 2019)
Read-outs that look alike come from different tables or passages of the source.

Tested on: HCT-116 cells
Test: Cell growth test (CellTiter-Blue), HCT-116
Type: cell-based
Settings: for cytotoxic effect relative to compound (1): 72 hours; for IC50: Homo sapiens, HCT-116, 48 h, 48 hours, read-out: IC50, cytotoxic effect
Experimental: The biological activity of compound (1), as well as that of its structural analogues, was studied in vitro on 7 different cancer cell lines: • HCT-116 (colorectal cancer) • U87 (glioblastoma) • K562 (myeloid leukemia) and K562 R • MDA-MB 231 (mammary adenocarcinoma) • MCF-7 (mammary adenocarcinoma) • A549 (pulmonary alveolar adenocarcinoma)
The cells selected for this study were incubated at 37° C. in the presence of compound (1) added in the culture medium at various concentrations and at various times. The set of experiments carried out made it possible to determine the degree of cytotoxicity of the compound tested (IC50), its capacity to induce cell death by apoptosis, in close dependence on extracellular superoxide anion for its activation. […]

Q: OCCCn1cc(-c2ccccc2)c(-c2ccccc2)c1 [(3), 3-(3,4-Diphenyl-1H-pyrrol)propan-1-ol] was tested. Which “cytotoxic effect relative to compound (1)” value (HCT-116, normoxia) did it give?
A: The value was “loss of cytotoxicity”.

Q: For O=C1C=C(c2cn(CCCO)cc2-c2ccccc2)C=C(C2=C(O)C(c3cn(CCCO)cc3-c3ccccc3)=CC(O)C2O)C1=O (centres unmarked) [dimer MH+ 631], which IC50 (HCT-116, hypoxia (2% O2)) is on record?
A: Its IC50 is 10 µM.

Q: What about the IC50 (HCT-116, normoxia) of the same compound?
A: Its IC50 is 7.5 µM.

Q: Which “cytotoxic effect relative to compound (1)” value (HCT-116, normoxia) does the source give for CCOCCCn1cc(-c2ccccc2)c(-c2ccc(O)c(O)c2)c1 [(4), 4-(1-(3-Ethoxypropyl)-4-phenyl-1H-pyrrole-3-yl)benzene-1,2-diol] here?
A: The value was “does not substantially change the IC50 value”.

Q: Which “cytotoxic effect relative to compound (1)” value (HCT-116, normoxia) does the source give for OCCCn1cc(-c2ccccc2)c(-c2ccc3c(c2)OCCO3)c1 [(2), 3-(3-(2,3-dihydrobenzo[b][1,4]dioxin-6-yl)-4-phenyl-1H-pyrrole-1-yl)propan-1-ol] here?
A: The value was “loss of cytotoxicity”.
